# Measurements reported in patent US9429582B2, “Tyrosine-phosphorylated WBP2, a novel cancer target and biomarker” (National University of Singapore, priority 2010, dated 2016).
# Tests used:
# Type in all cases: cell-based, human
# [1] = tested on: WBP2; experiment: Estrogen/progesterone-induced WBP2 tyrosine phosphorylation in MCF7 (IP/IB); conditions: 10 nM E2 or 100 nM P4 for 24 hr, 10 μM Iressa pre-treatment for 1 hr
# Experimental: A: Serum-starved cells were stimulated with 50 ng/ml EGF (E) for 5 min or hormone-stripped cells were stimulated with 10 nM Estrogen (E2) or 100 nM Progesterone (P4) for 24 hr with/without 10 μM Iressa (Ir) pre-treatment for 1 hr. Whole cell lysates were used for IP/IB analysis with antibodies indicated. […] D: Serum-starved MCF7 were stimulated with 50 ng/ml EGF (E) for 5 min or hormone-stripped cells were stimulated with 10 nM estrogen (E2) or 100 nM progesterone (P4) for 24 hr with/without 10 μM Iressa (Ir) pre-treatment for 1 hr. Whole cell lysates were used for IP/IB analysis with antibodies indicated. […] 24 hr post-transfection, serum-starved MCF7 were stimulated with 50 ng/ml EGF (E) for 5 min or hormone-stripped cells were stimulated with 10 nM Estrogen (E2) or 100 nM Progesterone (P4) for 24 hr. Whole cell lysates were used for IP/IB analysis with antibodies indicated. “O” denotes “untreated/vehicle-treated”
# For all experiments involving estrogen/progesterone (Sigma), MCF7 and T47D were cultured in Phenol-Red Free RPMI1640 (Sigma) containing 5% Charcoal-dextran Stripped FBS (Hyclone) for at least 2 days before stimulation. […] Fresh hormone/drug was replenished every day for treatment that last for more than 1 day.
# MCF7, MDA-MB231, T47D, HeLa and MCF10A were from American Type Culture Collection. […]
# [2] = tested on: ERα; experiment: ERE-Luciferase reporter assay in MCF7; conditions: MCF7; 10 nM E2 24 hr; 1 hr pretreatment with Iressa
# Experimental: (§1) A: Hormone-stripped MCF7 or T47D were co-transfected with vector, WBP2-WT or WBP2-Y192-231F mutant and ERE/PRE-Luciferase reporter constructs. Cells were either left alone or stimulated with (a) 50 ng/ml EGF for 5 min, (b) 10 nM E2/100 nM P4 for 24 hr, (c) E2/P4 and EGF in the absence or presence of 1 hr pretreatment with 100 μM Iressa(Ir). ERα/PR-transactivated luciferase activities in various conditions were then assayed. **P<0.01, ***P<0.001, Student's t-test (2-tailed). B: T47D were hormone-stripped and stimulated with 10 nM E2 for the indicated time (0-24 hr) in the absence and presence of 1 hr pretreatment with 10 μM Iressa(k). C: WT-WBP2 or Y192-231F mutant-transfected T47D were hormone stripped followed by 24 hr stimulation with 10 nM E2. For both experiments B and C, cells were then harvested for subcellular fractionation into nuclear and cytoplasmic fractions, which were used for IB/IP analysis with antibodies indicated. Histone 2A and GADPH were used as nuclear and cytoplasmic marker respectively. […] ERE (Top panel)/PR (Bottom panel)-transactivated luciferase activities in various conditions were then assayed analyzed in relative to vehicle-treated vector control. **P<0.01, ***P<0.001, Student's t-test (2-tailed). […] ERα-transactivated luciferase activities in various conditions were then assayed analyzed in relative to vehicle-treated vector control. […]
# [3] = tested on: PR; experiment: PRE-Luciferase reporter assay in T47D; conditions: 100 nM P4 24 hr, 1 hr pretreatment with Iressa
# Experimental: as §1
# [4] = tested on: WBP2; experiment: Subcellular fractionation of T47D, nuclear WBP2 upon estrogen stimulation; conditions: 10 nM E2 0-24 hr, 1 hr pretreatment with 10 μM Iressa
# Experimental: as §1
structure (smiles),measurement,setting,value
COc1cc2ncnc(Nc3ccc(F)c(Cl)c3)c2cc1OCCCN1CCOCC1 [Iressa],estrogen/progesterone-induced WBP2 phosphorylation,[1],Significant abolishment
same,estrogen-induced coactivator activity of WBP2 (ERα reporter),[2],abolished
same,progesterone-induced coactivator activity of WBP2 (PR reporter),[3],abolished
same,nuclear WBP2 upon estrogen stimulation,[4],reduced
